Reference: patent publication US5100914A, “Arylalkoxycoumarins” (BASF Aktiengesellschaft, priority 1988, dated 1992)

Columns and labels:
[1] = J. Agric. Food Chem. 34 (2), 185-188; cited from earlier work
MAO A = molecular target: T1, MAO A (Rattus norvegicus, UniProt P21396); test: determination of monoaminooxidase A inhibition in dilute rat brain homogenate; type: biochemical; settings: 14C-phenylethylamine or 14C-tryptamine 0.4 μmol/l, 20 min, 37° C., logit-log regression, read-out: IC50 MAO A (mean inhibitory concentration)
T1 construct: carried out in dilute rat brain homogenate; from tissue; host or cells: rat brain homogenate
T1 sequence (P21396 1-526): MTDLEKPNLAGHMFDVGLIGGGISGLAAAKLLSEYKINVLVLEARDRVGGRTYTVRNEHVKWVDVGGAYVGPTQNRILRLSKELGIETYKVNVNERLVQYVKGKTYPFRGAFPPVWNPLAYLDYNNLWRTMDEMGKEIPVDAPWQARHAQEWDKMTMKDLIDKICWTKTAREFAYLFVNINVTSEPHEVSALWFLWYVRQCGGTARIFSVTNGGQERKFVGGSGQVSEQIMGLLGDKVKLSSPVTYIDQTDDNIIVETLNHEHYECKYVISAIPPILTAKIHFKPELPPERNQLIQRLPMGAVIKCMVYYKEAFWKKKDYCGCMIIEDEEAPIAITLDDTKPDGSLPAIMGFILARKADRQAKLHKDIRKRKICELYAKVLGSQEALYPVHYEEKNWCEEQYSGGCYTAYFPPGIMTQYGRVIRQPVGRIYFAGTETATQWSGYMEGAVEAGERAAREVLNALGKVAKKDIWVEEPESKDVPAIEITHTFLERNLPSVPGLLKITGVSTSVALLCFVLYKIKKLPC
Description: (§1) The MAO-inhibiting activity of the novel compounds can be determined using standard methods. […] This mixture was incubated for 20 minutes at 37° C. […] The blank value was determined in similar mixtures with an incubation time of t =0 min.
(§2) From the inhibitory values determined at the various inhibitor concentrations against the controls, the mean inhibitory concentration (IC50) was calculated by linear regression following logit-log transformation.

MAO B = molecular target: T2, MAO B (Rattus norvegicus, UniProt P19643); test: determination of monoaminooxidase B inhibition in dilute rat brain homogenate; type: biochemical; settings: 20 min; for IC50: 14C-phenylethylamine or 14C-tryptamine 0.4 μmol/l, 37° C., logit-log regression, read-out: IC50 MAO B (mean inhibitory concentration); for MAO B selectivity (IC50 MAO A / IC50 MAO B): selectivity ratio from the two IC50 values
T2 construct: carried out in dilute rat brain homogenate; from tissue; host or cells: rat brain homogenate
T2 sequence (P19643 1-520): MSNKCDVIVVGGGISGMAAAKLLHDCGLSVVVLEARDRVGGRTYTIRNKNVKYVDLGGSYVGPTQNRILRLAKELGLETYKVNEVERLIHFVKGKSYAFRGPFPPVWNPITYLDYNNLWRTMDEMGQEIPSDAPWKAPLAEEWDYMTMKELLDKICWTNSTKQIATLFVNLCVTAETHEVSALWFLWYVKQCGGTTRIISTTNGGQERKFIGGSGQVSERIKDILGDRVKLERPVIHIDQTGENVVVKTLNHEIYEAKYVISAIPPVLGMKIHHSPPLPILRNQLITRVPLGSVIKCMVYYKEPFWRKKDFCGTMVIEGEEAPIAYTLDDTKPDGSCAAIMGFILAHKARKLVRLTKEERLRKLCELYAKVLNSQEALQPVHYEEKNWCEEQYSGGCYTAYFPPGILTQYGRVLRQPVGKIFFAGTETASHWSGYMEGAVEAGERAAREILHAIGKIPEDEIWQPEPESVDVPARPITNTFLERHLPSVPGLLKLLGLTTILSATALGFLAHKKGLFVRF
Description: as §1, §2

Structure (SMILES)	IC50 (MAO A)	IC50 (MAO B)	MAO B selectivity (IC50 MAO A / IC50 MAO B) (MAO B)	fungicidal activity [1]
Cc1cc(=O)oc2cc(OCc3c(F)c(F)c(F)c(F)c3F)ccc12 [7-pentafluorophenylmethoxy-4-methylcoumarin]	–	–	–	has fungicidal activity
CC(C)c1ccc(COc2ccc3ccc(=O)oc3c2)cc1 [Example 26, 7-(4-Isopropylphenyl)-methoxycoumarin]	> 10000 nM	1.8 nM	> 5600	–
Cc1cc(=O)oc2cc(OCc3ccc(C(C)C)cc3)ccc12 [Example 27, 4-Methyl-7-(4-isopropylphenyl)-methoxycoumarin]	> 10000 nM	4.7 nM	> 2100	–
Cc1cc2ccc(OCc3ccc(C(C)C)cc3)cc2oc1=O [Example 28, 3-Methyl-7-(4-isopropylphenyl)-methoxycoumarin]	> 10000 nM	2.8 nM	> 3600	–
Cc1c(Cl)c(=O)oc2cc(OCc3ccc(C(C)C)cc3)ccc12 [Example 33, 3-Chloro-4-methyl-7-(4-isopropylphenyl)-methoxycoumarin]	> 10000 nM	4.3 nM	> 2400	–
Cc1c(C)c2cc(Cl)c(OCc3ccc(C(C)C)cc3)cc2oc1=O [Example 38, 6-Chloro-3,4-dimethyl-7-(4-isopropylphenyl)-methoxycoumarin]	> 10000 nM	31 nM	> 320	–

Further lines, with some results ahead:

IC50 (MAO A)	IC50 (MAO B)	MAO B selectivity (IC50 MAO A / IC50 MAO B) (MAO B)	Structure (SMILES)	fungicidal activity [1]
> 10000 nM	11 nM	> 900	Cc1c(C)c2ccc(OCc3ccc4ccccc4c3)cc2oc1=O [Example 4, 3,4-Dimethyl-7-(2-naphthyl)-methoxycoumarin]	–
> 10000 nM	3.7 nM	> 2700	Cc1ccc(C)c(COc2ccc3c(C)c(C)c(=O)oc3c2)c1 [Example 10, 3,4-Dimethyl-7-(2,5-dimethylphenyl)-methoxycoumarin]	–
> 10000 nM	13 nM	> 770	CCc1cc2c(C)c(C)c(=O)oc2cc1OCCc1ccccc1 [Example 23, 6-Ethyl-3,4-dimethyl-7-(2-phenyl)-ethoxycoumarin]	–
1200 nM	4.2 nM	280	Cc1c(C)c2ccc(OCCCc3ccccc3)cc2oc1=O [Example 35, 3,4-Dimethyl-7-(3-phenylpropoxy)-coumarin]	–
